Measurements as given in PubChem BioAssay AID1963971 (Molecular Pharmacology Branch, DTP, NCI, 2024).

Tested on: 953936-095-R-J2-PDC spheroids with HUVEC/MSC, viability
Assay: Anticancer human tumor 953936-095-R-J2-PDC patient-derived cervical squamous cell carcinoma cell line growth inhibition [PI3K]
Conditions: for IC50: curve of first compound; for viability, T/C: stronger effect = lower value; active = viability on the fitted dose curve at most 10% of control; inactive = the rest
Outline: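 Stroma-containing spheroids: tumor line, pooled-donor HUVEC, hMSC. Treatments: targeted agents with PI3K inhibitors. Dosing: clinically relevant, half-log spacing, 10 microM ceiling without known Cmax. Read-out: cell viability.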

[1] = second compound 0.0316 µM, first compound 0.000316 µM
[2] = second compound 0.0316 µM, first compound 0.001 µM
[3] = second compound 0.0316 µM, first compound 0.00316 µM
[4] = second compound 0.0316 µM, first compound 0.01 µM
[5] = second compound 0.0316 µM, first compound 0.0316 µM
[6] = second compound 0.0316 µM, first compound 0.1 µM
[7] = second compound 0.1 µM, first compound 0.000316 µM
[8] = second compound 0.1 µM, first compound 0.001 µM
[9] = second compound 0.1 µM, first compound 0.00316 µM
[10] = second compound 0.1 µM, first compound 0.01 µM
[11] = second compound 0.1 µM, first compound 0.0316 µM
[12] = second compound 0.1 µM, first compound 0.1 µM
[13] = second compound 0.316 µM, first compound 0.000316 µM
[14] = second compound 0.316 µM, first compound 0.001 µM
[15] = second compound 0.316 µM, first compound 0.00316 µM
[16] = second compound 0.316 µM, first compound 0.01 µM
[17] = second compound 0.316 µM, first compound 0.0316 µM
[18] = second compound 0.316 µM, first compound 0.1 µM
[19] = second compound 1 µM, first compound 0.000316 µM
[20] = second compound 1 µM, first compound 0.001 µM
[21] = second compound 1 µM, first compound 0.00316 µM
[22] = second compound 1 µM, first compound 0.01 µM
[23] = second compound 1 µM, first compound 0.0316 µM
[24] = second compound 1 µM, first compound 0.1 µM
[25] = second compound 3.16 µM, first compound 0.000316 µM
[26] = second compound 3.16 µM, first compound 0.001 µM
[27] = second compound 3.16 µM, first compound 0.00316 µM
[28] = second compound 3.16 µM, first compound 0.01 µM
[29] = second compound 3.16 µM, first compound 0.0316 µM
[30] = second compound 3.16 µM, first compound 0.1 µM
[31] = second compound 10 µM, first compound 0.000316 µM
[32] = second compound 10 µM, first compound 0.001 µM
[33] = second compound 10 µM, first compound 0.00316 µM
[34] = second compound 10 µM, first compound 0.01 µM
[35] = second compound 10 µM, first compound 0.0316 µM
[36] = second compound 10 µM, first compound 0.1 µM
[37] = second compound 0.0316 µM, first compound 0.316 µM
[38] = second compound 0.0316 µM, first compound 1 µM
[39] = second compound 0.0316 µM, first compound 3.16 µM
[40] = second compound 0.0316 µM, first compound 10 µM
[41] = second compound 0.1 µM, first compound 0.316 µM
[42] = second compound 0.1 µM, first compound 1 µM
[43] = second compound 0.1 µM, first compound 3.16 µM
[44] = second compound 0.1 µM, first compound 10 µM
[45] = second compound 0.316 µM, first compound 0.316 µM
[46] = second compound 0.316 µM, first compound 1 µM
[47] = second compound 0.316 µM, first compound 3.16 µM
[48] = second compound 0.316 µM, first compound 10 µM
[49] = second compound 1 µM, first compound 0.316 µM
[50] = second compound 1 µM, first compound 1 µM
[51] = second compound 1 µM, first compound 3.16 µM
[52] = second compound 1 µM, first compound 10 µM
[53] = second compound 3.16 µM, first compound 0.316 µM
[54] = second compound 3.16 µM, first compound 1 µM
[55] = second compound 3.16 µM, first compound 3.16 µM
[56] = second compound 3.16 µM, first compound 10 µM
[57] = second compound 10 µM, first compound 0.316 µM
[58] = second compound 10 µM, first compound 1 µM
[59] = second compound 10 µM, first compound 3.16 µM
[60] = second compound 10 µM, first compound 10 µM
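Also: spheroids exposed to compounds for seven days before read-out.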

CC(C)n1nc(-c2ccc3oc(N)nc3c2)c2c(N)ncnc21 + CC(Nc1ncnc2nc[nH]c12)c1cc2cccc(Cl)c2c(=O)n1-c1ccccc1
0.029 µM: IC50 (second compound 0.1 µM)
0.0307 µM: IC50 (second compound 1 µM)
0.0338 µM: IC50 (second compound 0.0316 µM)
0.0113 µM: IC50 (second compound 10 µM)
0.0193 µM: IC50 (second compound 0.316 µM)
0.0218 µM: IC50 (second compound 3.16 µM)
inactive: viability, T/C [1] 88.3% | viability, T/C [2] 98.9% | viability, T/C [3] 93.9% | viability, T/C [4] 73.9% | viability, T/C [5] 53.7% | viability, T/C [6] 18.2% | viability, T/C [7] 101% | viability, T/C [8] 95% | viability, T/C [9] 85.1% | viability, T/C [10] 77.1% | viability, T/C [11] 46.3% | viability, T/C [12] 16.5% | viability, T/C [13] 112% | viability, T/C [14] 87.6% | viability, T/C [15] 77.9% | viability, T/C [16] 66.9% | viability, T/C [17] 46.8% | viability, T/C [18] 17.2% | viability, T/C [19] 95.1% | viability, T/C [20] 84.2% | viability, T/C [21] 77.7% | viability, T/C [22] 65% | viability, T/C [23] 56% | viability, T/C [24] 15.9% | viability, T/C [25] 73.3% | viability, T/C [26] 70.5% | viability, T/C [27] 68.8% | viability, T/C [28] 68.8% | viability, T/C [29] 41.1% | viability, T/C [30] 14.6% | viability, T/C [31] 57.7% | viability, T/C [32] 57.3% | viability, T/C [33] 53.3% | viability, T/C [34] 52.8% | viability, T/C [35] 29.9% | viability, T/C [36] 12.8%

CC1(C)CCC(CN2CCN(c3ccc(C(=O)NS(=O)(=O)c4ccc(NCC5CCOCC5)c([N+](=O)[O-])c4)c(Oc4cnc5[nH]ccc5c4)c3)CC2)=C(c2ccc(Cl)cc2)C1 + CC(Nc1ncnc2nc[nH]c12)c1cc2cccc(Cl)c2c(=O)n1-c1ccccc1
7.41 µM: IC50 (second compound 0.0316 µM)
6.61 µM: IC50 (second compound 3.16 µM)
4.9 µM: IC50 (second compound 10 µM)
7.16 µM: IC50 (second compound 1 µM)
6.33 µM: IC50 (second compound 0.1 µM)
7.43 µM: IC50 (second compound 0.316 µM)
inactive: viability, T/C [5] 84.4% | viability, T/C [6] 102% | viability, T/C [37] 101% | viability, T/C [38] 90.2% | viability, T/C [39] 94.7% | viability, T/C [40] 34.3% | viability, T/C [11] 93.8% | viability, T/C [12] 104% | viability, T/C [41] 112% | viability, T/C [42] 98% | viability, T/C [43] 78.8% | viability, T/C [44] 31% | viability, T/C [17] 101% | viability, T/C [18] 93.9% | viability, T/C [45] 104% | viability, T/C [46] 96.3% | viability, T/C [47] 90.5% | viability, T/C [48] 35.8% | viability, T/C [23] 106% | viability, T/C [24] 97.1% | viability, T/C [49] 82.5% | viability, T/C [50] 88.7% | viability, T/C [51] 88.8% | viability, T/C [52] 34.4% | viability, T/C [29] 80.4% | viability, T/C [30] 79.4% | viability, T/C [53] 80.6% | viability, T/C [54] 80.5% | viability, T/C [55] 67.7% | viability, T/C [56] 39.2% | viability, T/C [35] 57.5% | viability, T/C [36] 70.3% | viability, T/C [57] 59.6% | viability, T/C [58] 60.8% | viability, T/C [59] 62% | viability, T/C [60] 31.1%

CCCS(=O)(=O)Nc1ccc(F)c(C(=O)c2c[nH]c3ncc(-c4ccc(Cl)cc4)cc23)c1F + CC(Nc1ncnc2nc[nH]c12)c1cc2cccc(Cl)c2c(=O)n1-c1ccccc1
active: viability, T/C [40] 0.75% | viability, T/C [44] 1.22% | viability, T/C [48] 0.93% | viability, T/C [52] 1.11% | viability, T/C [56] 1.48% | viability, T/C [60] 1.27%
5.73 µM: IC50 (second compound 0.1 µM)
5.74 µM: IC50 (second compound 0.0316 µM)
inactive: viability, T/C [5] 91.3% | viability, T/C [6] 98.6% | viability, T/C [37] 108% | viability, T/C [38] 113% | viability, T/C [39] 103% | viability, T/C [11] 102% | viability, T/C [12] 101% | viability, T/C [41] 99.2% | viability, T/C [42] 104% | viability, T/C [43] 104% | viability, T/C [17] 101% | viability, T/C [18] 91.6% | viability, T/C [45] 97% | viability, T/C [46] 102% | viability, T/C [47] 97.2% | viability, T/C [23] 98.9% | viability, T/C [24] 85.1% | viability, T/C [49] 96.5% | viability, T/C [50] 98.2% | viability, T/C [51] 89.3% | viability, T/C [29] 76.1% | viability, T/C [30] 74.6% | viability, T/C [53] 78% | viability, T/C [54] 101% | viability, T/C [55] 86.9% | viability, T/C [35] 59.5% | viability, T/C [36] 63.5% | viability, T/C [57] 63% | viability, T/C [58] 70.1% | viability, T/C [59] 63.6%
5.28 µM: IC50 (second compound 1 µM)
4.07 µM: IC50 (second compound 10 µM)
5.56 µM: IC50 (second compound 0.316 µM)
5.05 µM: IC50 (second compound 3.16 µM)

C[C@@H](NC(=O)c1ncnc(N)c1Cl)c1ncc(C(=O)Nc2cc(C(F)(F)F)c(Cl)cn2)s1 + CC(Nc1ncnc2nc[nH]c12)c1cc2cccc(Cl)c2c(=O)n1-c1ccccc1
> 10 µM: IC50 (second compound 0.0316 µM) | IC50 (second compound 0.1 µM) | IC50 (second compound 0.316 µM) | IC50 (second compound 1 µM) | IC50 (second compound 3.16 µM) | IC50 (second compound 10 µM)
inactive: viability, T/C [5] 103% | viability, T/C [6] 98.3% | viability, T/C [37] 101% | viability, T/C [38] 108% | viability, T/C [39] 101% | viability, T/C [40] 97.2% | viability, T/C [11] 113% | viability, T/C [12] 106% | viability, T/C [41] 106% | viability, T/C [42] 101% | viability, T/C [43] 117% | viability, T/C [44] 96.4% | viability, T/C [17] 107% | viability, T/C [18] 101% | viability, T/C [45] 94.3% | viability, T/C [46] 95.4% | viability, T/C [47] 103% | viability, T/C [48] 94.6% | viability, T/C [23] 96.5% | viability, T/C [24] 91.3% | viability, T/C [49] 91.8% | viability, T/C [50] 102% | viability, T/C [51] 94.8% | viability, T/C [52] 86.2% | viability, T/C [29] 87.2% | viability, T/C [30] 79.5% | viability, T/C [53] 86.1% | viability, T/C [54] 94% | viability, T/C [55] 80.1% | viability, T/C [56] 79.8% | viability, T/C [35] 60.9% | viability, T/C [36] 76.9% | viability, T/C [57] 63.1% | viability, T/C [58] 80.7% | viability, T/C [59] 61.7% | viability, T/C [60] 55.1%

Cn1ncnc1[C@H]1c2n[nH]c(=O)c3cc(F)cc(c23)N[C@@H]1c1ccc(F)cc1 + CC(Nc1ncnc2nc[nH]c12)c1cc2cccc(Cl)c2c(=O)n1-c1ccccc1
> 0.1 µM: IC50 (second compound 0.0316 µM) | IC50 (second compound 0.1 µM) | IC50 (second compound 0.316 µM) | IC50 (second compound 1 µM) | IC50 (second compound 3.16 µM) | IC50 (second compound 10 µM)
inactive: viability, T/C [1] 110% | viability, T/C [2] 95.1% | viability, T/C [3] 104% | viability, T/C [4] 98.8% | viability, T/C [5] 91.7% | viability, T/C [6] 96.7% | viability, T/C [7] 100% | viability, T/C [8] 99.3% | viability, T/C [9] 105% | viability, T/C [10] 99.7% | viability, T/C [11] 101% | viability, T/C [12] 90.1% | viability, T/C [13] 99.5% | viability, T/C [14] 96.8% | viability, T/C [15] 110% | viability, T/C [16] 92.9% | viability, T/C [17] 101% | viability, T/C [18] 91.9% | viability, T/C [19] 104% | viability, T/C [20] 90.7% | viability, T/C [21] 90.2% | viability, T/C [22] 84% | viability, T/C [23] 101% | viability, T/C [24] 86.9% | viability, T/C [25] 87.2% | viability, T/C [26] 78.5% | viability, T/C [27] 79.8% | viability, T/C [28] 81.5% | viability, T/C [29] 78% | viability, T/C [30] 81.3% | viability, T/C [31] 56.8% | viability, T/C [32] 57.8% | viability, T/C [33] 56.9% | viability, T/C [34] 61.9% | viability, T/C [35] 58.7% | viability, T/C [36] 58.9%
